We go through 4 molecules from patent publication US20220395481A1, “BACTERIOSTATIC COMPOSITION, PREPARATION METHOD THEREFOR, AND USE THEREOF” (SHENZHEN EULIKAN BIOTECHNOLOGY CO., LTD, priority 2020, published 2022).

For assay [1], the system named is Candida albicans ATCC 10231. The assay can be described thus: Inhibition rate after 20 minutes of action, Appendix C of GB 15979-2002. The format is cell-based.
From the text: “Inhibition rate” is the inhibition rate of bacteriostatic agents against Escherichia coli, Staphylococcus aureus, Candida albicans, or other microorganisms obtained by referring to the test methods and judgment criteria in Appendix C of GB 15979-2002 Hygienic Standard for Disposable Sanitary Products.
“Bacteriostatic effect” refers to the inhibition of bacteria, fungi, or other microorganisms by bacteriostatic agents.
The percentage concentration of each ingredient therein was the weight percentage concentration % (w/w), and the pH value of each group was 3.8.
The percentage concentration of each ingredient therein was the weight percentage concentration % (w/w), and the pH value of each group was 4.0.
According to the method described in Appendix C of GB 15979-2002 Hygienic Standard for Disposable Sanitary Products, aqueous solutions containing different ingredients were studied for their bacteriostatic effects of 20 minutes of action against Candida albicans ATCC 10231, the percentage concentration of each ingredient therein was the weight percentage concentration % (w/w), and the pH value of each group was 3.9. […]
Assay [2] has as its system lactobacilli. Conditions: cited from earlier work.

Where two headings read alike, the source gives them in different places.

In assay [1] (Table 12, single ingredient solutions, pH 3.8, 20 minutes of action), `O=C([O-])c1ccccc1.[Na+]` [0.25% sodium benzoate, sodium benzoate] came in with an Inhibition rate of 3.73%.
As for `N[C@@H](CCC(=O)O)C(=O)O` [0.55% glutamic acid, glutamic acid], the “influence on the bacteriostatic effect of the solution containing 0.14% malic acid, 1.46% adipic acid, 0.20% sodium benzoate, 1.67% propionic acid, and 0.40% phenethyl alcohol against Candida albicans” value in assay [1] (text on Table 26, pH 4.0, Group 1 compared to Group 2) is listed as “did not affect the bacteriostatic effect”.
Take `OCCc1ccccc1` [phenethyl alcohol, phenethyl alcohol (2-phenylethanol)]: the growth of lactobacilli entry in assay [2] (concentration 0.40% (w/v)) was “not significantly inhibited”; in assay [2] (concentration 0.50% (w/v)), “inhibited”.
Regarding `CCC(=O)[O-].[Na+]` [sodium propionate], the growth of lactobacilli entry in assay [2] (concentration 0.40% (w/v)) is reported as “not significantly inhibited”; in assay [2] (concentration 0.50% (w/v)), “not significantly inhibited”; in assay [2] (concentration 0.70% (w/v)), “inhibited”.
